Test results from patent US20250129090A1, “COMPOSITIONS USEFUL FOR MODULATING SPLICING” (SKYHAWK THERAPEUTICS, INC., priority 2021, published 2025).

How the values were obtained:
[1] = tested on: total ATXN3 protein; assay: ATXN3 Total Protein Assay; format: cell-based; conditions: Human neuroblastoma SK-N-MC cells, incubation 48 hours, MSD assay; read-out: ATXN3 Protein Potency IC50
Protocol: Human neuroblastoma SK-N-MC cells were seeded at 10,000 cells/well in 384 well plates one day prior to compound treatment. The concentrations of compounds were tested at appropriate doses ranging from 30 μM to 0.6 nM. After incubation for 48 hours, the cells were lysed with 25 μL of lysis buffer containing protease inhibitors, and total ATXN3 protein levels were assessed by Mesoscale Discovery (MSD) assay developed with one pair of anti-ATXN3 antibodies. The capture and detect antibodies were raised in mouse and rabbit respectively. Anti-rabbit MSD-ST antibody was used for secondary antibody.
ATXN3 recombinant protein was used for standards. The readouts were captured with 35 μL of MSD read buffer and multi-array 384-well high binding plates.

[2] = tested on: exon 4 skipped transcripts of ATXN3; assay: ATXN3 Quantitative Splicing Assay; format: cell-based; conditions: Human neuroblastoma SK-N-MC cells, treated 24 h, qPCR; read-out: ATXN 3 E4 Skipping EC50
Protocol: Human neuroblastoma SK-N-MC cells were plated in 384-well plates at 20,000 cells/well. Twenty-four hours after plating, cells were treated with compounds for 24 h at appropriate concentrations ranging from 30 µM to 0.6 nM (0.3% DMSO). Treated cells were lysed in 15 μL of lysis buffer, and cDNA was synthesized using the Fast Advanced Cells-to-Ct kit. Two μL of each cDNA was used in qPCR reactions to confirm the exon 4 skipped transcripts of ATXN3. A second set of primers/probe E4E5 was used to detect the transcripts containing exon 4. The third set of primers/probe E8E9 was used to detect total gene level of ATXN3. The qPCR reactions were prepared in 384-well plates in 10 μL volume, using TaqMan™ Fast Advanced Master Mix with primers and probes shown in the table below. Reactions were run in a Quant Studio 6 qPCR instrument with default settings.
The primers and probes are listed below in Table 3.

Compound | IC50 [1] [µM] | EC50 [2] [µM]
Cc1csc2c(NCc3cccs3)nnnc12 [Compound 1, 7-methyl-N-(thiophen-2-ylmethyl)thieno[3,2-d][1,2,3]triazin-4-amine] | ≥ 10 | ≥ 10
Cc1c(C[C@H](C)N)sc2c(NCc3cccs3)nnnc12 [Compound 2, (S)-6-(2-aminopropyl)-7-methyl-N-(thiophen-2-ylmethyl)thieno[3,2-d][1,2,3]triazin-4-amine] | 0.501 to 5 | 0.501 to 5
Cc1csc2c(NCc3ccco3)nnnc12 [Compound 3, N-(furan-2-ylmethyl)-7-methylthieno[3,2-d][1,2,3]triazin-4-amine] | ≥ 10 | ≥ 10
Cc1c(C[C@H](C)N)sc2c(NCc3ccco3)nnnc12 [Compound 4, (S)-6-(2-aminopropyl)-N-(furan-2-ylmethyl)-7-methylthieno[3,2-d][1,2,3]triazin-4-amine] | 0.501 to 5 | ≥ 10
